Measurements as given in patent US10738007B2, “Amide compounds as kinase inhibitors, compositions and methods of treatment” (TRANSLATIONAL DRUG DEVELOPMENT, LLC, priority 2016, dated 2020).
Read-outs that look alike come from different tables or passages of the source.

Columns and labels:
ROCK1 = ROCK1 (Homo sapiens (Human), UniProt Q13464); test: ROCK1 kinase inhibition assay (peptide phosphorylation, LABCHIP 3000); format: biochemical; details: 5 μM ATP, 3 nM ROCK1, 3 hours at 25° C.
Experimental: (§1) The peptide is phosphorylated by the protein kinase ROCK1 or ROCK2. The ROCK1 or ROCK2 enzyme, substrate, and cofactors (ATP and Mg^2+) are combined in a well of a microtiter plate and incubated for 3 hours at 25° C. in the presence or absence of an inhibitor compound. At the end of the incubation, the reaction is quenched by the addition of an EDTA-containing buffer. The substrate and product are separated and quantified electrophoretically using the microfluidic-based LABCHIP® 3000 Drug Discovery System from Caliper Life Sciences (Hopkinton, Mass.).
(§2) The components of the assay mixture are:
10 μM Sodium Orthovanadate
10 LM Beta-Glycerophosphate
(§3) 5 μM ATP (for ROCK1) or 7 μM ATP (for ROCK2)
3 nM ROCK1 or 2.5 nM ROCK2 enzyme
(§4) Substrate and product peptides present in each sample are separated electrophoretically using the LABCHIP® 3000 capillary electrophoresis instrument. […] Change in the relative fluorescence intensity of the substrate and product peaks is the parameter measured reflecting enzyme activity. Capillary electrophoregramms (RDA acquisition files) are analyzed using HTS Well Analyzer software (Caliper Life Sciences, Hopkinton, Mass.). The kinase activity in each sample is determined as the product to sum ratio (PSR): P/(S+P), where P is the peak height of the product peptide and S is the peak height of the substrate peptide. For each compound, enzyme activity is measured at various concentrations (12 concentrations of compound spaced by 3× dilution intervals). Negative control samples (0%-inhibition in the absence of inhibitor) and positive control samples (100%-inhibition in the presence of 20 mM EDTA) are assembled in replicates of four and are used to calculate %-inhibition values for each compound at each concentration. Percent inhibition (Pinh) is determined using the following equation: Pinh=(PSRO %−PSRinh)/(PSRO %−PSR100%)*100
(§5) where PSRinh is the product sum ratio in the presence of inhibitor, PSRO % is the average product sum ratio in the absence of inhibitor, and PSR100% is the average product sum ratio in 100%-inhibition control samples. The IC50 values of inhibitors are determined by fitting the inhibition curves (Pinh versus inhibitor concentration) by the 4-parameter sigmoidal dose-response model using XLfit 4 software (IBDS).

ROCK2 = ROCK2 (Homo sapiens (Human), UniProt O75116); test: ROCK2 kinase inhibition assay (peptide phosphorylation, LABCHIP 3000); format: biochemical; details: 7 μM ATP, 2.5 nM ROCK2, 3 hours at 25° C.
ROCK2, sequence (O75116 whole entry, species assumed): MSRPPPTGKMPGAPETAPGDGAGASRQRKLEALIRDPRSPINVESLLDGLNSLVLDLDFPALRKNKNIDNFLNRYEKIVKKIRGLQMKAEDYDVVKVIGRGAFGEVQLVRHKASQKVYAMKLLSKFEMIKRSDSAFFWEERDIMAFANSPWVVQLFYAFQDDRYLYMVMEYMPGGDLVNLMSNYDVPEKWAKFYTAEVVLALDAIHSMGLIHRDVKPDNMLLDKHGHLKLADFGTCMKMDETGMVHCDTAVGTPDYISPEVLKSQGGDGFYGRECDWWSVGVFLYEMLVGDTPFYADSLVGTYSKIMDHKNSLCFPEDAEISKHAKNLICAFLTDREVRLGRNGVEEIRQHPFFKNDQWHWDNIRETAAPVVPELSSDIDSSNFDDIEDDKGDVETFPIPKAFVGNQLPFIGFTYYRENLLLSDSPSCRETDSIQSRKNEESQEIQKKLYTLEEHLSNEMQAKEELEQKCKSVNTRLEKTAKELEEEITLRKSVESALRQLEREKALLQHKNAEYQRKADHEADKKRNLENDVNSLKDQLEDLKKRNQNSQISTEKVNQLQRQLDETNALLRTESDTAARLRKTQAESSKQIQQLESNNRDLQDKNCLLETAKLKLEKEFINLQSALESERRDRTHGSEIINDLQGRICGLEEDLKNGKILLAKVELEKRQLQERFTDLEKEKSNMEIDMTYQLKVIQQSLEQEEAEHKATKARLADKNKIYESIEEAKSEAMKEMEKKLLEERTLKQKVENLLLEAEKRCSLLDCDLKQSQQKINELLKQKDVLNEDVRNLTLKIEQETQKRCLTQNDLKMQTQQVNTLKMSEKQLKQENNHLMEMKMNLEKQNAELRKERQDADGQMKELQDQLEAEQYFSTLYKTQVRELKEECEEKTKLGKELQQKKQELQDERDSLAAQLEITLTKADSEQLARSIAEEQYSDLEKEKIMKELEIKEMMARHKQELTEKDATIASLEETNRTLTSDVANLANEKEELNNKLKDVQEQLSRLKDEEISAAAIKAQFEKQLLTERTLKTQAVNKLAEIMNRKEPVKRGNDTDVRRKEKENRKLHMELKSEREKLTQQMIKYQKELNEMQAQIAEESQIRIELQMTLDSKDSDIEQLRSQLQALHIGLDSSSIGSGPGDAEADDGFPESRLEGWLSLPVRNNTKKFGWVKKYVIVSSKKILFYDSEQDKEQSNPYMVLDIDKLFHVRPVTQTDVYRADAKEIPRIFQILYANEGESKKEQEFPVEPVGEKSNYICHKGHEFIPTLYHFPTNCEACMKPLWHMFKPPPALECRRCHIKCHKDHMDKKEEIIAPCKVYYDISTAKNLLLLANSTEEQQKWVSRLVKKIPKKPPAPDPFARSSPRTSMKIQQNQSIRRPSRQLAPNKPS
Experimental: as §1, §2
10 μM Sodium Orthovanadate
10 LM Beta-Glycerophosphate
as §3
3 nM ROCK1 or 2.5 nM ROCK2 enzyme
as §4, §5

K562 cell line = test: Cell viability assay ([…]-GLO), K562; format: cell-based; details: K562 (does not express ITD-FLT3), 72 hours treatment
Experimental: Cell viability in the presence of varying concentrations of the above listed compounds at different time points was used to assess cytotoxicity and the effect of the compounds on cell proliferation.
Cell viability was measured by the […]-GlO® cell viability assay from Promega (Madison, Wis.). The […]-GlO Luminescent Cell Viability Assay is a homogeneous method to determine the number of viable cells in culture based on quantitation of the ATP present, which signals the presence of metabolically active cells. Following treatment, […]-GlO® is added to treatment wells and incubated at 37° C. Luminescence values were measured at using a Molecular Devices Spectramax microplate reader.
Cells were grown to 70% confluency, trypsinized, counted, and seeded in 96 well flat-bottom plates at a final concentration of 2.5×10^3-5×10^3 cells/well (Day 0). Cells were allowed to incubate in growth media for 24 hours. Treatment with the test agents or standard agents began on Day 1 and continued for 72 hours. At the 72-hour time point, treatment containing media was removed. Viable cell numbers were quantified by the […]-GLO® cell viability assay as described above. Results from these studies were used to calculate an IC50 value (concentration of drug that inhibits cell growth by 50 percent of control) for each compound.
For single agent and combination studies, data from each experiment was collected and expressed as % Cell Growth using the following calculation: % Cell Growth=(ftest/fvehicle)×100
Where ftest is the luminescence of the tested sample, and fvehicle is the luminescence of the vehicle in which the drug is dissolved. Dose response graphs and IC50 values were generated using Prism 6 software (GraphPad) using the following equation: Y=(Top−Bottom)/(1+10^((logIC50-X)−HillSlope))
Where X is the logarithm of the concentration and Y is the response. Y starts at the Bottom and goes to the Top with a sigmoid shape.
The experiments also evaluated the selectivity of the compounds for inhibiting growth of cancer cells carrying a mutation in the Flt3 gene. The MV411 cell line expresses the mutant allele of Flt3 with internal tandem duplications (ITD) of the gene. See Quentmeier et al., “FLT3 Mutations in Acute Myeloid Leukemia Cell Lines,” Leukemia 17(1), 2003, 120-124. […] See Grafone et al., “Monitoring of FLT3 Phosphorylation Status and Its Response to Drugs By Flow Cytometry in AML Blast Cells,” Hematol Oncol. 26(3), 2008, 159-166.

MV411 cell line = test: Cell viability assay ([…]-GLO), MV411; format: cell-based; details: for IC50: MV411 (ITD-FLT3+), 72 hours treatment; for FLT3-ITD+ Selectivity (K562/MV411): ratio K562/MV411
[1] = Pharmacokinetic activity in mice; format: in vivo; details: for AUC(0-t): read-out: AUC0-8; for Vd: read-out: Vss
Experimental: Compounds were individually and accurately weighed out to produce a stock solution in Dimethyl-sulfoxide (DMSO) at a concentration of 2 mg/mL and stored at −20° C. From the stock solution, a working stock was prepared by diluting it in Methanol-Water 50:50 (v/v) at 20 μg/mL for calibration curve preparation and stored at 4° C. Standards used for quantitation and quality control samples (QCs) were prepared on the same day of sample processing using blank plasma obtained from non-treated mice. For each analyte, standards were prepared through serial dilutions of the working stock at concentrations of 0.1, 0.5, 1.0, 10, 50, 100, 500, and 1000 ng/mL; QCs were prepared at intermediate concentrations of 0.75, 7.5, 75, and 750 ng/mL. Plasma samples were stored at −80° C. until ready for analysis and then placed on ice for thawing. An aliquot of […] samples, standards, or QCs, were transferred into a 96-well extraction plate according to a pre-defined layout. An appropriate volume of Methanol-Formic Acid 99.9-0.1 containing internal standard (Verapamil at 25 ng/mL) was added to each well and the samples were extracted under vacuum. Eluent was then transferred into a LCMS plate for analysis using a suitable column for separation and MRM detection. Concentration of analytes was calculated based on the calibration curve and analyzed for pharmacokinetic parameters by using Non-compartmental analysis (NCA). Parameters such as Cmax, Tmax, half-life, AUC(0-last), AUC(0-∞), volume of distribution (Vss), and clearance (Cl/F) were reported.

ROCK1, sequence (Q13464 whole entry, species assumed): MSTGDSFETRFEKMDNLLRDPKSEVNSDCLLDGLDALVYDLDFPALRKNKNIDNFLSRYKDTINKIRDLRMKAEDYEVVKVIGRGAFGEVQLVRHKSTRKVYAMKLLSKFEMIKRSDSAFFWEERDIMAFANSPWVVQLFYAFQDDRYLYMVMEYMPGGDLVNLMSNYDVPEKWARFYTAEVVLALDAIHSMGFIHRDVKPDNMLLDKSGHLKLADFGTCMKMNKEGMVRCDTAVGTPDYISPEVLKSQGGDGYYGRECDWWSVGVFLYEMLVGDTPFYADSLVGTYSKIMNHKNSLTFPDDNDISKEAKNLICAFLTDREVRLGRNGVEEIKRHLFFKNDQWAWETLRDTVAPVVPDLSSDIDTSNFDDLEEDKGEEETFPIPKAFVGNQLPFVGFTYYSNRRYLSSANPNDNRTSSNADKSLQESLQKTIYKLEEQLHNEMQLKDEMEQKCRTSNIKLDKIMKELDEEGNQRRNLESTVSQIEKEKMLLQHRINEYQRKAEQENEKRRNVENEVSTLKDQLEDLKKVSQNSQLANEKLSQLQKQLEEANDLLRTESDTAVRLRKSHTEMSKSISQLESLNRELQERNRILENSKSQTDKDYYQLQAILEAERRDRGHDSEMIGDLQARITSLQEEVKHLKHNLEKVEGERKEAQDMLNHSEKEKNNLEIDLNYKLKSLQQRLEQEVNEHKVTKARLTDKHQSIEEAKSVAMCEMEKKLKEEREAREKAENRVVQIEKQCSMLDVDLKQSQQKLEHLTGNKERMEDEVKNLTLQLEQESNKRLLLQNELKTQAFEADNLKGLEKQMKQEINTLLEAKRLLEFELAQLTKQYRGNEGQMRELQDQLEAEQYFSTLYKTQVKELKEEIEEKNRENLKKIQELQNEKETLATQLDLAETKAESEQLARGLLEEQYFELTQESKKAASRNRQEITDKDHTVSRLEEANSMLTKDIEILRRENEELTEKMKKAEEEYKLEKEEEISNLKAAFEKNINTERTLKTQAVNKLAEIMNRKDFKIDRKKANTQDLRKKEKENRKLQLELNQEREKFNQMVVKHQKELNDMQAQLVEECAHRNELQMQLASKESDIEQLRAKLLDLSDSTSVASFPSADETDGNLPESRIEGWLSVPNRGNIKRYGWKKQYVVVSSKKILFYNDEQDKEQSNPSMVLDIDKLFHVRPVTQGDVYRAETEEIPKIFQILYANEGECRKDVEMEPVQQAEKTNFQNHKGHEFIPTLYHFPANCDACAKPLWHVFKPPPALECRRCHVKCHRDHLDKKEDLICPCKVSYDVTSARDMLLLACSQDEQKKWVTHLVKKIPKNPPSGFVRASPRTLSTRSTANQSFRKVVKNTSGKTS

Row | IC50 (ROCK2) [nM] | IC50 (K562 cell line; Homo sapiens) [nM] | IC50 (MV411 cell line; Homo sapiens, MV4-11) [nM] | SMILES | FLT3-ITD+ Selectivity (K562/MV411) (MV411 cell line) | also measured
1 | 2.8 | – | – | CN1CCc2ccc(NC(=O)c3cccc(C(CO)NC(=O)c4ccc(-c5ccncc5)cc4)c3)cc2C1 (stereo not drawn) [Compound 2] | – | IC50 (ROCK1): 2.8 nM
2 | 18.9 | – | – | CN(C)CCNC(=O)COc1cccc(CNC(=O)c2ccc(-c3ccncc3)cc2)c1 [Compound 4] | – | IC50 (ROCK1): 56.1 nM
3 | 1.5 | 20400 | 60 | CN1CCc2ccc(NC(=O)c3cccc([C@@H](CO)NC(=O)c4ccc(-c5ccncc5)cc4)c3)cc2C1 [Compound 7] | 333 | AUC % Extrap ([1]; IV - 1 mg/kg): 3.29%; Cl/F obs ([1]; IV - 1 mg/kg): 68.7 mL/min/kg; R-sq ([1]; IV - 1 mg/kg): 0.88; R-sq ([1]; PO - 5 mg/kg): 0.47; AUC(0-inf) ([1]; mouse, plasma, IV - 1 mg/kg): 243 ng·h/mL; C0 ([1]; mouse, plasma, IV - 1 mg/kg): 411 ng/mL; Cmax ([1]; mouse, plasma, IV - 1 mg/kg): 190 ng/mL; Tmax ([1]; mouse, plasma, IV - 1 mg/kg): 0.25 h; half-life ([1]; mouse, plasma, IV - 1 mg/kg): 6.43 h; AUC(0-t) ([1]; mouse, plasma, IV - 1 mg/kg): 235 ng·h/mL; Vd ([1]; mouse, plasma, IV - 1 mg/kg): 16.3 L/kg; Cmax ([1]; mouse, plasma, PO - 5 mg/kg): 5.3 ng/mL; Tmax ([1]; mouse, plasma, PO - 5 mg/kg): 1 h; AUC(0-t) ([1]; mouse, plasma, PO - 5 mg/kg): 81.6 ng·h/mL
4 | 1.5 | – | – | CN(C)c1ccc(CNC(=O)c2cccc([C@@H](CO)NC(=O)c3ccc(-c4ccncc4)cc3)c2)cc1 [Compound 30] | – | IC50 (ROCK1): 2.9 nM
5 | 1 | – | – | CN(C)c1cccc(CNC(=O)c2cccc([C@@H](CO)NC(=O)c3ccc(-c4ccncc4)cc3)c2)c1 [Compound 31] | – | IC50 (ROCK1): 2.1 nM
6 | 1.2 | – | – | CCN(CC)C1CCC(NC(=O)c2cccc([C@@H](CO)NC(=O)c3ccc(-c4ccncc4)cc3)c2)CC1 (stereo partly drawn) [Compound 35] | – | IC50 (ROCK1): 1.6 nM
7 | – | – | – | C[C@@H](NC(=O)c1ccc(-c2ccncc2)cc1)c1cccc(C(=O)NC2CCCC2)c1 [Compound 36] | – | AUC % Extrap ([1]; IV - 1 mg/kg): 0.35%; Cl/F obs ([1]; IV - 1 mg/kg): 2.67 mL/min/kg; R-sq ([1]; IV - 1 mg/kg): 0.72; AUC % Extrap ([1]; PO - 5 mg/kg): 0.33%; R-sq ([1]; PO - 5 mg/kg): 1.00; AUC(0-inf) ([1]; mouse, plasma, IV - 1 mg/kg): 6070 ng·h/mL; C0 ([1]; mouse, plasma, IV - 1 mg/kg): 5910 ng/mL; Cmax ([1]; mouse, plasma, IV - 1 mg/kg): 4340 ng/mL; Tmax ([1]; mouse, plasma, IV - 1 mg/kg): 0.25 h; half-life ([1]; mouse, plasma, IV - 1 mg/kg): 2.59 h; AUC(0-t) ([1]; mouse, plasma, IV - 1 mg/kg): 5850 ng·h/mL; Vd ([1]; mouse, plasma, IV - 1 mg/kg): 0.27 L/kg; AUC(0-inf) ([1]; mouse, plasma, PO - 5 mg/kg): 10500 ng·h/mL; CL/F ([1]; mouse, plasma, PO - 5 mg/kg): 8 mL/min/kg; Cmax ([1]; mouse, plasma, PO - 5 mg/kg): 2500 ng/mL; Tmax ([1]; mouse, plasma, PO - 5 mg/kg): 1 h; half-life ([1]; mouse, plasma, PO - 5 mg/kg): 2.96 h; bioavailability ([1]; mouse, plasma, PO - 5 mg/kg vs IV - 1 mg/kg): 34.6%; AUC(0-t) ([1]; mouse, plasma, PO - 5 mg/kg): 8890 ng·h/mL; Vd/F ([1]; mouse, plasma, PO - 5 mg/kg, read-out: Vz/F obs): 2.04 L/kg
8 | 9 | 34000 | 910 | CC1(NC(=O)c2cccc([C@@H](CO)NC(=O)c3ccc(-c4ccncc4)cc3)c2)CCC1 [Compound 71] | 37 | –
9 | 0.5 | 89000 | 100 | CN(C)C1(CNC(=O)c2cccc([C@@H](CO)NC(=O)c3ccc(-c4ccncc4)cc3)c2)CCCC1 [Compound 72] | 891 | –
10 | 0.6 | 27000 | 80 | COC1(CNC(=O)c2cccc([C@@H](CO)NC(=O)c3ccc(-c4ccncc4)cc3)c2)CCC1 [Compound 73] | 337 | –
11 | 27.1 | 74000 | 9120 | CN(C)CC1(NC(=O)c2cccc([C@@H](CO)NC(=O)c3ccc(-c4ccncc4)cc3)c2)CCCC1 [Compound 74] | 8 | –
12 | 0.5 | 33000 | 160 | O=C(NCc1cccc(F)c1)c1cccc([C@@H](CO)NC(=O)c2ccc(-c3ccncc3)cc2)c1 [Compound 75] | 207 | –
13 | – | – | – | COc1ccc(NC(=O)c2cccc([C@@H](CO)NC(=O)c3ccc(-c4ccncc4)cc3)c2)cn1 [Compound 80] | – | IC50 (ROCK1): 1.7 nM
14 | 1.2 | 33000 | 270 | O=C(NCC1CC1)c1cccc([C@@H](CO)NC(=O)c2ccc(-c3ccncc3)cc2)c1 [Compound 84] | 123 | –
15 | 0.6 | 33000 | 90 | COc1ccc(CNC(=O)c2cccc([C@@H](CO)NC(=O)c3ccc(-c4ccncc4)cc3)c2)cc1 [Compound 85] | 368 | –
16 | 2.7 | > 100000 | 1700 | O=C(NC1CCCC1)c1cccc([C@@H](CO)NC(=O)c2ccc(-c3ccncc3)cc2F)c1 [Compound 86] | >58 | –
17 | 0.8 | 23000 | 270 | COC1(CNC(=O)c2cccc([C@@H](CO)NC(=O)c3ccc(-c4ccncc4)cc3)c2)CCCC1 [Compound 87] | 85 | –
18 | 7.5 | > 100000 | 8500 | Cc1cc(-c2ccncc2)ccc1C(=O)N[C@H](CO)c1cccc(C(=O)NC2CCCC2)c1 [Compound 88] | >12 | –
19 | 0.72 | 66000 | 280 | O=C(NCC1CCCC1)c1cccc([C@@H](CO)NC(=O)c2ccc(-c3ccncc3)cc2)c1 [Compound 89] | 236 | –
20 | 0.64 | – | – | COC(=O)N1CCC(NC(=O)c2cccc([C@@H](CO)NC(=O)c3ccc(-c4ccncc4)cc3)c2)CC1 [Compound 90] | >5050 | IC50 (K562 cell line): > 100000 nM; IC50 (MV411 cell line): 20 nM
21 | 0.57 | – | – | COC(=O)N1CCC(CNC(=O)c2cccc([C@@H](CO)NC(=O)c3ccc(-c4ccncc4)cc3)c2)CC1 [Compound 91] | >4040 | IC50 (K562 cell line): > 100000 nM; IC50 (MV411 cell line): 30 nM
22 | 0.68 | – | – | O=C(NC1CCN(CC(F)(F)F)CC1)c1cccc([C@@H](CO)NC(=O)c2ccc(-c3ccncc3)cc2)c1 [Compound 92] | >3061 | IC50 (K562 cell line): > 100000 nM; IC50 (MV411 cell line): 30 nM
23 | 0.51 | 85000 | 90 | COc1ccc(NC(=O)c2cccc([C@@H](CO)NC(=O)c3ccc(-c4ccncc4)cc3)c2)cn1 [Compound 93] | 935 | –
24 | 2.34 | 76000 | 890 | O=C(NC1CCCC1)c1cccc([C@@H](CO)NC(=O)c2ccc(-c3cn[nH]c3)cc2F)c1 [Compound 95] | 86 | –
25 | 53.1 | 101000 | 710 | Cc1cc(-c2cn[nH]c2)ccc1C(=O)N[C@H](CO)c1cccc(C(=O)NC2CCCC2)c1 [Compound 96] | 142 | –
26 | 0.74 | 17000 | 110 | C[C@@H](NC(=O)c1ccc(-c2cn[nH]c2)cc1)c1cccc(C(=O)NC2CCCC2)c1 [Compound 97] | 154 | –
27 | 0.25 | 15000 | 80 | CCOc1cc(-c2cn[nH]c2)ccc1C(=O)N[C@H](CO)c1cccc(C(=O)NC2CCCC2)c1 [Compound 101] | 194 | –
28 | 2.5 | > 100000 | 410 | COc1cc(-c2ccncc2)ccc1C(=O)N[C@H](CO)c1cccc(C(=O)NC2CCCC2)c1 [Compound 110] | 246 | –
